Assay results from US6929799B2, “D-alanine racemase mutants of mycobacteria and uses therefore” (priority 2001, dated 2005).
Values after ≈ are worked out from the molar mass of the structure shown. Where two headings read alike, the source gives them in different places.

Columns and labels:
[1] = tested on: M. smegmatis TAM23 alr mutant; experiment: MIC by microplate twofold dilution, alr mutant strain; type: cell-based, Mycobacterium smegmatis; conditions: for MIC: Mycolicibacterium smegmatis, TAM23ALRMUTANT
[2] = tested on: M. smegmatis wild type mc2155; experiment: microbe, parasite or virus in culture; type: cell-based, Mycobacterium smegmatis; conditions: for MIC: Mycolicibacterium smegmatis
[3] = tested on: D-alanine ligase; conditions: David, 1969; Chacon, Ph.D. thesis; cited from earlier work
[4] = tested on: M. smegmatis mc2155; type: cell-based, Mycobacterium smegmatis
[5] = molecular target: M. smegmatis D-alanine racemase (AlrA) (Mycolicibacterium smegmatis, UniProt P94967); conditions: Caceres et al., 1997; listed as DCS; cited from earlier work
[6] = tested on: M. smegmatis TAM23; experiment: Bactericidal action of DCS in broth culture, alr mutant strain; type: cell-based, Mycobacterium smegmatis
[7] = 48 h, read-out: Minimal Inhibitory Concentration (MIC), TAM23 alr mutant, inoculum grown with 50 mM D-alanine, Middlebrook 7H9, 48 h
[8] = 48 h, read-out: Minimal Inhibitory Concentration (MIC), TAM23 alr mutant, inoculum grown without D-alanine, Middlebrook 7H9, 48 h
[9] = MC2155, 48 h, read-out: Minimal Inhibitory Concentration (MIC)

M. smegmatis D-alanine racemase (AlrA), sequence (P94967 whole entry): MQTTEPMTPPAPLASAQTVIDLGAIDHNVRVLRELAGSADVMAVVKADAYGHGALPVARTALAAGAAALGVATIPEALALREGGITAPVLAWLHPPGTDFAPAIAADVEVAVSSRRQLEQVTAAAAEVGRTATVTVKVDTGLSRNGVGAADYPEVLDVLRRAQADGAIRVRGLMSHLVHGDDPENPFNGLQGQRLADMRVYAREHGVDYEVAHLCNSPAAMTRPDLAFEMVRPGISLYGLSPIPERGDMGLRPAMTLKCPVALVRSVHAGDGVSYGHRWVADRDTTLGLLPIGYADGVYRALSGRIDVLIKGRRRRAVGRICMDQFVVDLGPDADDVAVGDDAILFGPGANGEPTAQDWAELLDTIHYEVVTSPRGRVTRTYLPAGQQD

Row | SMILES | MIC [1, 7] | MIC [1, 8] | MIC [2, 9] | Inhibition of D-alanine ligase activity [3] | MIC ([1]; TAM23, independent of prior growth conditions of the inocula, read-out: MIC with D-alanine added directly into the MIC test cultures) | MIC for TAM23, times lower than the MIC for the wild-type strain ([1]; inoculum grown with D-alanine, washed) | Sensitivity of TAM23 relative to wild type (MIC ratio) ([1]; inoculum grown without D-alanine) | Minimal Inhibitory Concentration (MIC) [2] | MIC ([2]; MC2155, read-out: MIC with D-alanine added directly into the MIC test cultures) | Bactericidal effect (optical density and viable counts) [4] | Inhibition of D-alanine racemase [5] | Bactericidal effect (optical density and viable counts) ([6]; DCS at 50 times the MIC (128 μg/ml), broth without D-alanine, up to 72 h) | Bactericidal drug concentration for mutant strain, fold lower than for wild-type strain ([6]; absolute drug concentrations)
1 | NCC[C@H](O)C(=O)N[C@@H]1C[C@H](N)[C@@H](O[C@H]2O[C@H](CN)[C@@H](O)[C@H](O)[C@H]2O)[C@H](O)[C@H]1O[C@H]1O[C@H](CO)[C@@H](O)[C@H](N)[C@H]1O [Amikacin, amikacin] | 1.56 µg/mL (≈ 2.66 µM) | 1.56 µg/mL (≈ 2.66 µM) | 1.56 µg/mL (≈ 2.66 µM) |  |  |  |  |  |  |  |  |  | 
2 | N[C@@H]1CON=C1O [D-Cycloserine, D-cycloserine] | 10.2 µg/mL (≈ 99.9 µM) | 2.56 µg/mL (≈ 25.1 µM) | 75 µg/mL (≈ 735 µM) | inhibited | 1200 µg/mL (≈ 11800 µM) | about 7.5 times | about 30 fold | 75.0 µg/mL | 1200 µg/mL (≈ 11800 µM) | rapid death by lysis | inhibited by DCS in a concentration-dependent manner | rapid death by lysis | 30 fold
3 | CC[C@@H](CO)NCCN[C@@H](CC)CO [Ethambutol, ethambutol] | 3.13 µg/mL (≈ 15.3 µM) | 3.13 µg/mL (≈ 15.3 µM) | 3.13 µg/mL (≈ 15.3 µM) |  |  |  |  |  |  |  |  |  | 
4 | CO[C@H]1/C=C/O[C@@]2(C)Oc3c(C)c(O)c4c(c3C2=O)C2=NC3(CCN(CC(C)C)CC3)NC2=C(NC(=O)/C(C)=C\C=C\[C@H](C)[C@H](O)[C@@H](C)[C@@H](O)[C@@H](C)[C@H](OC(C)=O)[C@@H]1C)C4=O [Rifabutin, rifabutin] | 1 µg/mL (≈ 1.18 µM) | 2 µg/mL (≈ 2.36 µM) | 2 µg/mL (≈ 2.36 µM) |  |  |  |  |  |  |  |  |  | 
